# Compound: O=C(c1cc(Cc2n[nH]c(=O)c3ccccc23)ccc1F)N1CCN(C(=O)C2CC2)CC1 [Olaparib] + COc1cc2c(Oc3ccc(NC(=O)C4(C(=O)Nc5ccc(F)cc5)CC4)cc3F)ccnc2cc1OCCCN1CCOCC1 [Foretinib] (partner 0.25 µM)
# Assay: relative viability (nuclei count vs DMSO), 5 days (fraction); higher = more cells survive
# Details: first compound 0.08 µM
# Procedure, shortened: (§1)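 Relative viability divides the nuclei count in treated wells by that in vehicle wells. Lung cancer cell lines were seeded in 1536-well plates, dosed by pin tool the next day, and fixed and stained after 5 days in one step with final 0.05% Triton X-100, 1% formaldehyde and 1 ug/ml Hoechst. Dosing was a single drug or a fixed anchor-drug dose plus five library-drug doses (not always all listed) in √10 steps, and values are medians of duplicate plates imaged at 4×.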
row,Cell Line,relative viability
1,NCI-H23,1.19
2,NCI-H322M,1.04
3,NCI-H358,0.962
4,NCI-H441,1.13
5,NCI-H460,0.925
6,NCI-H520,0.848
7,NCI-H596,0.927
8,NCI-H647,1.19
9,NCI-H650,1.11
10,NCI-H661,1.16
11,NCI-H727,0.843
12,NCI-H838,1.18
13,NCI-H1355,1.12
14,NCI-H1395,1.04
15,NCI-H1437,1.3
16,NCI-H1650,1.2
17,NCI-H1651,0.828

row,Cell Line,relative viability
1,NCI-H1666,0.936
2,NCI-H1734,0.885
3,NCI-H1755,0.922
4,NCI-H1915,1.06
5,NCI-H1944,0.704
6,NCI-H1975,1.04
7,NCI-H1993,0.906
8,NCI-H2009,1.35
9,NCI-H2023,0.931
10,NCI-H2085,1.1
11,NCI-H2087,1.08
12,NCI-H2126,1.06
13,NCI-H2170,1.01
14,NCI-H2228,0.884
15,NCI-H2347,0.902
16,NCI-H2405,1.11

# Same assay, conditions: first compound 0.253 µM
row,Cell Line,relative viability
1,NCI-H23,0.904
2,NCI-H322M,0.964
3,NCI-H358,0.66
4,NCI-H441,0.857
5,NCI-H460,0.889
6,NCI-H520,0.761
7,NCI-H596,0.82
8,NCI-H647,1.04
9,NCI-H650,1.02
10,NCI-H661,0.97
11,NCI-H727,1.06
12,NCI-H838,0.921
13,NCI-H1355,0.941
14,NCI-H1395,0.87
15,NCI-H1437,1.12
16,NCI-H1650,0.996
17,NCI-H1651,0.681

row,Cell Line,relative viability
1,NCI-H1666,0.867
2,NCI-H1734,0.782
3,NCI-H1755,0.898
4,NCI-H1915,1.02
5,NCI-H1944,0.784
6,NCI-H1975,0.929
7,NCI-H1993,0.794
8,NCI-H2009,1.16
9,NCI-H2023,0.733
10,NCI-H2085,0.831
11,NCI-H2087,0.921
12,NCI-H2126,1.15
13,NCI-H2170,0.98
14,NCI-H2228,0.767
15,NCI-H2347,0.945
16,NCI-H2405,1.01

# Same assay, conditions: first compound 2.53 µM
row,Cell Line,relative viability
1,NCI-H23,0.971
2,NCI-H322M,0.979
3,NCI-H358,0.675
4,NCI-H441,0.967
5,NCI-H460,0.914
6,NCI-H520,0.624
7,NCI-H596,0.828
8,NCI-H647,1.13
9,NCI-H650,0.909
10,NCI-H661,0.948
11,NCI-H727,0.911
12,NCI-H838,1.02
13,NCI-H1355,1
14,NCI-H1395,0.842
15,NCI-H1437,1.08
16,NCI-H1650,1.15
17,NCI-H1651,0.544

row,Cell Line,relative viability
1,NCI-H1666,0.793
2,NCI-H1734,0.851
3,NCI-H1755,0.868
4,NCI-H1915,0.717
5,NCI-H1944,0.648
6,NCI-H1975,0.98
7,NCI-H1993,1.04
8,NCI-H2009,1.17
9,NCI-H2023,0.775
10,NCI-H2085,0.916
11,NCI-H2087,0.949
12,NCI-H2126,1.36
13,NCI-H2170,0.994
14,NCI-H2228,0.805
15,NCI-H2347,0.786
16,NCI-H2405,0.946

# Same assay, conditions: first compound 8 µM
row,Cell Line,relative viability
1,NCI-H23,0.706
2,NCI-H322M,0.718
3,NCI-H358,0.64
4,NCI-H441,0.83
5,NCI-H460,0.437
6,NCI-H520,0.359
7,NCI-H596,0.534
8,NCI-H647,1.07
9,NCI-H650,0.794
10,NCI-H661,0.775
11,NCI-H727,0.703
12,NCI-H838,1.01
13,NCI-H1355,0.832
14,NCI-H1395,0.563
15,NCI-H1437,0.914
16,NCI-H1650,1.35
17,NCI-H1651,0.301

row,Cell Line,relative viability
1,NCI-H1666,0.823
2,NCI-H1734,0.637
3,NCI-H1755,0.787
4,NCI-H1915,0.604
5,NCI-H1944,0.603
6,NCI-H1975,0.908
7,NCI-H1993,0.931
8,NCI-H2009,1.06
9,NCI-H2023,0.733
10,NCI-H2085,0.886
11,NCI-H2087,0.736
12,NCI-H2126,1.18
13,NCI-H2170,0.948
14,NCI-H2228,0.765
15,NCI-H2347,0.977
16,NCI-H2405,0.956

# Compound: C[C@@H](Oc1cc(-c2cnn(C3CCNCC3)c2)cnc1N)c1c(Cl)ccc(F)c1Cl [Crizotinib] + CS(=O)(=O)N1CCN(Cc2cc3nc(-c4cccc5[nH]ncc45)nc(N4CCOCC4)c3s2)CC1 [Pictilisib] (partner 1 µM)
# Assay: as above
# Details: first compound 0.01 µM
# Procedure, shortened: as §1
row,Cell Line,relative viability
1,NCI-H23,0.441
2,NCI-H322M,0.432
3,NCI-H358,0.338
4,NCI-H441,0.436
5,NCI-H460,0.4
6,NCI-H520,0.261
7,NCI-H596,0.348
8,NCI-H647,0.432
9,NCI-H650,0.883
10,NCI-H661,0.379
11,NCI-H727,0.368
12,NCI-H838,0.396
13,NCI-H1355,0.45
14,NCI-H1395,0.621
15,NCI-H1437,0.311
16,NCI-H1650,0.516
17,NCI-H1651,0.437
18,NCI-H1666,0.483
19,NCI-H1734,0.419
20,NCI-H1755,0.413
21,NCI-H1915,0.874

# Source: the supplement of paper PMC10307832
